Test results: US20250120912A1, “SYNERGISTIC NANOMEDICINE DELIVERING TOPOISOMERASE I TOXIN (SN-38) AND INHIBITORS OF POLYNUCLEOTIDE KINASE 3'-PHOSPHATASE (PNKP) FOR ENHANCED TREATMENT OF COLORECTAL CANCER” (THE GOVERNORS OF THE UNIVERSITY OF ALBERTA, priority 2021, published 2025)
≈ marks a conversion by molar mass, not a printed value. Where two headings read alike, the source gives them in different places.

Assays:
HCT116 [1] = assay: Western blot of cleaved PARP, γ-H2AX, cleaved caspase-3 and -7; type: cell-based, human; details: HCT116, 10 μM, 6 h
Procedure: (§1) In brief, 1×10^6 cells were plated in each well of 6-well plates 24 h prior to the treatments. […] The cells of 3 controls received only 0.1% DMSO, 10 μM A83, and 10 μM PM26/A83, respectively. Protein extracts for western blot analysis were prepared using commercial RIPA lysis buffer (ThermoFisher Scientific, Canada) supplemented with a cocktail of protease inhibitors (Millipore Sigma, Canada). Protein concentrations were measured using the BCA assay kit (Pierce/ThermoFisher Scientific, Canada) according to the manufacturer's protocol. Equal concentrations of protein were separated by SDS-PAGE and transferred to nitrocellulose membranes. After blocking with 5% skimmed milk in TBST (50 mM Tris-HCl, pH 7.4, 150 mM NaCl, and 0.1% Tween 20), the blots were incubated with the respective primary antibodies (cleaved caspase-3 cat #9661S, cleaved caspase-7 cat #9491S, PARP cat #9542S, phospho-histone H2A.X (Ser139) cat #9718S) and secondary antibody (HRP-linked anti-rabbit IgG cat #7074S) purchased from Cell Signaling Technology (Whitby, ON, Canada). The protein bands were detected using an enhanced chemiluminescence (ECL) based system (Pierce/ThermoFisher Scientific, Canada). The band intensities for the PNKP protein were quantified by performing optical density analysis using ImageJ software. Each experiment was carried out in triplicate.

HT-29 [2] = assay: as above; type: cell-based, human; details: HT-29, 10 μM, 6 h
Procedure: as §1

[3] = In vitro drug release, dialysis-bag diffusion technique; type: physicochemical; details: dialysis MWCO 3.5 kDa, 4% albumin in water, 37° C., n=3
Procedure: […] The concentrations of SN-38 in collected samples were determined by UV-Vis spectrophotometer (BioTEK, Winooski, VT, USA). Detection was performed at a wavelength of 383 nm. […] All experiments were carried out in triplicate.

HT-29 [4] = assay: In vitro cytotoxicity assay (MTS); details: Homo sapiens
Procedure: (§2) Two CRC cell lines, HCT116 and HT-29 originally purchased from ATCC were used. The cells were cultured at 37° C. in 5% CO2 in a humidified incubator in a 1:1 mixture of Dulbecco's modified Eagle medium and F12 (DMEM/F12) supplemented with 10% FBS, 50 U/mL penicillin, 50 mg/mL streptomycin, 2 mmol/L L-glutamine, 0.1 mmol/L nonessential amino acids, and 1 mmol/L sodium pyruvate.
(§3) In brief, 2×10^3 cells were plated in each well of 96-well flat-bottomed plates 24 h prior to the treatments. […] After different experimental incubation time points (24, 48, and 72 h), 20 μL of MTS reagent was added in each well and further incubated for 1 h at 37° C. before measuring the absorbance at 490 nm using BioTEK microplate reader. Each experiment was performed in quadruplicates.

healthy CD-1 mice = details: up to 50 mg/kg intravenously, Cremophor EL: Ethanol or micellar formulation [20]; cited from earlier work
[5] = Water solubilized level of drug; type: physicochemical
HCT116 [6] = assay: In vitro cytotoxicity assay (MTS)
Procedure: as §2, §3

[7] = literature [5]; cited from earlier work

COc1ccccc1C(O)C1C=CC2C(=O)N(Cc3cccc4ccccc34)C(=O)C2N1Nc1ccc([N+](=O)[O-])cc1 (centres unmarked) [A83B4C63, 2-[hydroxy (2-methoxyphenyl)methyl]-6-(naphthalene-1-ylmethyl)-1-[(4-nitrophenyl)amino]-2H, 4aH, 7aH-pyrrolo[3,4-b]pyridine-5,7-dione]
apoptotic signaling (HCT116 [1]): no apoptotic signaling
apoptotic signaling (HT-29 [2]): no apoptotic signaling
release of A83B4C63 ([3]; over 6 h): 98.81±2.09%
IC50 (HT-29 [4]; HT-29, read-out: relative IC50 of PNKP inhibitor alone): > 40 µM
systemic and tissue toxicity (healthy CD-1 mice): neither systemic nor tissue toxicity
solubility ([5]; water, without micelles): 1 µM (≈ 0.565 µg/mL)
IC50 (HCT116 [6]; Homo sapiens, HCT-116, read-out: relative IC50 of PNKP inhibitor alone): > 40 µM

CCc1c2c(nc3ccc(OC(=O)N4CCC(N5CCCCC5)CC4)cc13)-c1cc3c(c(=O)n1C2)COC(=O)[C@]3(O)CC [Irinotecan, 7-ethyl-10-[4-(1-piperidino)-1-piperidino] carbonyloxycamptothecin]
IC50 (HT-29 [4]; HT-29, 24 h, read-out: IC50 (relative IC50)): 10.7 ± 4.5 µM
IC50 (HT-29 [4]; HT-29, 48 h, read-out: IC50 (relative IC50)): 11.6 ± 4.3 µM
IC50 (HT-29 [4]; HT-29, 72 h, read-out: IC50 (relative IC50)): 7.1 µM
IC50 (HCT116 [6]; Homo sapiens, HCT-116, 24 h, read-out: IC50 (relative IC50)): 7.3 ± 3.7 µM
IC50 (HCT116 [6]; Homo sapiens, HCT-116, 48 h, read-out: IC50 (relative IC50)): 3.9 ± 1.7 µM
IC50 (HCT116 [6]; Homo sapiens, HCT-116, 72 h, read-out: IC50 (relative IC50)): 6.3 ± 1.6 µM

CCc1c2c(nc3ccc(O)cc13)-c1cc3c(c(=O)n1C2)COC(=O)[C@]3(O)CC [SN-38, (S)-4, 11-Diethyl-4,9-di-OH-1, 12-dihydro-4H-2-oxa-6,12α-diaza-dibenzo[b, h]fluorene-3,13-dione]
release of SN-38 ([3]; over 6 h): 96.46±1.43%
release of A83B4C63 ([3]; over 24 h): 99.81±0.01%
water solubilized level of SN-38 ([5]; unconjugated SN-38): 25 µg/mL
IC50 (HCT116 [6]; read-out: IC50 (relative IC50), HCT116, 24 h, as TOP1 inhibitor concentration, A83B4C63 10 μM where present, n = 4): 0.14 ± 0.04 µM
IC50 (HCT116 [6]; read-out: IC50 (relative IC50), HCT116, 48 h, as TOP1 inhibitor concentration, A83B4C63 10 μM where present, n = 4): 0.05 ± 0.01 µM
IC50 (HCT116 [6]; read-out: IC50 (relative IC50), HCT116, 72 h, as TOP1 inhibitor concentration, A83B4C63 10 μM where present, n = 4): 0.02 ± 0.01 µM
potency relative to the prodrug irinotecan [7]: 1,000 times
